Where two headings read alike, the source gives them in different places.
Tests used:
Test in all cases: Glasshouse assay for herbicidal activity (pre- and post-emergence), percentage phytotoxicity
Assay type in all cases: in vivo
[1] = system: Alopecurus myosuroides (ALOMY); settings: Alopecurus myosuroides, rate 250 g/ha
Procedure, shortened: (§1)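 Sow seed in standard soil in pots; apply test herbicide after 1 day (PRE) or about 12 days (POST). Grow on in the glasshouse, watering twice daily, cool-season species at 20/16 °C and warm-season at 24/18 °C. Score visible damage (0–100%) at 20 or 15 DAA respectively.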

Avena fatua (AVEFA) = settings: Avena fatua, rate 250 g/ha
Procedure, shortened: as §1

[2] = system: Echinochloa crus-galli (ECHCG); settings: Echinochloa crus-galli, rate 250 g/ha
Procedure, shortened: as §1

Lolium perenne (LOLPE) = settings: Lolium perenne, rate 250 g/ha
Procedure, shortened: as §1

[3] = post-emergence, 360 h, POST-emergence, visual score 15 DAA (100%=total damage, 0%=no damage), read-out: Post-emergence herbicidal activity (percentage phytotoxicity) ALOMY POST
[4] = pre-emergence, 480 h, PRE-emergence, visual score 20 DAA (100%=total damage, 0%=no damage), read-out: Pre-emergence herbicidal activity (percentage phytotoxicity) ALOMY PRE
[5] = post-emergence, 360 h, POST-emergence, visual score 15 DAA (100%=total damage, 0%=no damage), read-out: Post-emergence herbicidal activity (percentage phytotoxicity) AVEFA POST
[6] = pre-emergence, 480 h, PRE-emergence, visual score 20 DAA (100%=total damage, 0%=no damage), read-out: Pre-emergence herbicidal activity (percentage phytotoxicity) AVEFA PRE
[7] = post-emergence, 360 h, POST-emergence, visual score 15 DAA (100%=total damage, 0%=no damage), read-out: Post-emergence herbicidal activity (percentage phytotoxicity) ECHCG POST
[8] = pre-emergence, 480 h, PRE-emergence, visual score 20 DAA (100%=total damage, 0%=no damage), read-out: Pre-emergence herbicidal activity (percentage phytotoxicity) ECHCG PRE
[9] = post-emergence, 360 h, POST-emergence, visual score 15 DAA (100%=total damage, 0%=no damage), read-out: Post-emergence herbicidal activity (percentage phytotoxicity) LOLPE POST
[10] = pre-emergence, 480 h, PRE-emergence, visual score 20 DAA (100%=total damage, 0%=no damage), read-out: Pre-emergence herbicidal activity (percentage phytotoxicity) LOLPE PRE

Row | Structure (SMILES) | pest or weed control at 250 g/ha [1, 3] [%] | pest or weed control at 250 g/ha [1, 4] [%] | pest or weed control at 250 g/ha (Avena fatua (AVEFA); [5]) [%] | pest or weed control at 250 g/ha (Avena fatua (AVEFA); [6]) [%] | pest or weed control at 250 g/ha [2, 7] [%] | pest or weed control at 250 g/ha [2, 8] [%] | pest or weed control at 250 g/ha (Lolium perenne (LOLPE); [9]) [%] | pest or weed control at 250 g/ha (Lolium perenne (LOLPE); [10]) [%]
1 | C/C=C/c1cc(C)c(C2C(=O)CC(CC(=O)NCc3ccc(OC)cc3)C2=O)c(CC)c1 (stereo not shown) [Compound B189] | 90 | 60 | 90 | 40 | 100 | 80 | 90 | 80
2 | C/C=C/c1cc(C)c(C2C(=O)CC(CC(=O)NCc3ccccc3)C2=O)c(CC)c1 (stereo not shown) [Compound B190] | 70 | 60 | 90 | 40 | 100 | 80 | 80 | 70
3 | C/C=C/c1cc(C)c(C2C(=O)CC(CC(=O)NCc3ccc(C#N)cc3)C2=O)c(CC)c1 (stereo not shown) [Compound B191] | 50 | 60 | 90 | 40 | 100 | 80 | 90 | 70
4 | C/C=C/c1cc(C)c(C2C(=O)CC(CC(=O)NC(C)C)C2=O)c(CC)c1 (stereo not shown) [Compound B192] | 100 | 100 | 100 | 90 | 100 | 100 | 100 | 100
5 | C=CCNC(=O)CC1CC(=O)C(c2c(C)cc(/C=C/C)cc2CC)C1=O (stereo not shown) [Compound B193] | 100 | 100 | 100 | 90 | 100 | 100 | 100 | 100
6 | C/C=C/c1cc(C)c(C2C(=O)CC(CC(=O)N(C)CC)C2=O)c(CC)c1 (stereo not shown) [Compound B194] | 100 | 100 | 100 | 80 | 100 | 90 | 100 | 100
7 | C#CCN(C)C(=O)CC1CC(=O)C(c2c(C)cc(/C=C/C)cc2CC)C1=O (stereo not shown) [Compound B195] | 100 | 90 | 100 | 80 | 100 | 100 | 100 | 100
8 | C/C=C/c1cc(C)c(C2C(=O)CC(CC(=O)NCC3CC3)C2=O)c(CC)c1 (stereo not shown) [Compound B196] | 100 | 100 | 100 | 80 | 100 | 100 | 100 | 100
9 | Cc1cc(-c2ncc(Cl)cc2F)cc(C)c1C1C(=O)CC(CC(=O)NCC2CC2(F)F)C1=O (stereo not shown) [Compound B197] | 100 | 100 | 100 | 90 | 100 | 100 | 100 | 90
10 | Cc1cc(Br)cc(C)c1C1C(=O)CC(CC(=O)NCC2CC2(F)F)C1=O (stereo not shown) [Compound B198] | 100 | 90 | 100 | 60 | 100 | 80 | 100 | 70
11 | Cc1cc(-c2ncc(F)cc2F)cc(C)c1C1C(=O)CC(CC(=O)NCc2ccc(C#N)cc2)C1=O (stereo not shown) [Compound B199] | 100 | 80 | 100 | 60 | 100 | 50 | 90 | 70
12 | C=C(C)CNC(=O)CC1CC(=O)C(c2c(C)cc(-c3ncc(F)cc3F)cc2C)C1=O (stereo not shown) [Compound B200] | 100 | 100 | 100 | 90 | 100 | 100 | 100 | 100
13 | CCNC(=O)CC1CC(=O)C(c2c(C)cc(-c3ncc(F)cc3F)cc2C)C1=O (stereo not shown) [Compound B201] | 100 | 100 | 100 | 100 | 100 | 100 | 100 | 100
14 | Cc1cc(-c2ncc(F)cc2F)cc(C)c1C1C(=O)CC(CC(=O)NCc2ccc(C#N)cn2)C1=O (stereo not shown) [Compound B202] | 90 | 80 | 80 | 70 | 90 | 70 | 70 | 60
15 | Cc1cc(-c2ncc(F)cc2F)cc(C)c1C1C(=O)CC(CC(=O)NC(C)C)C1=O (stereo not shown) [Compound B203] | 100 | 100 | 100 | 100 | 100 | 100 | 100 | 100
16 | Cc1cc(OCC(F)(F)F)cc(C)c1C1C(=O)CC(CC(=O)NCc2cccc(Cl)c2)C1=O (stereo not shown) [Compound B204] | 100 | 90 | 100 | 80 | 100 | 90 | 90 | 90
17 | Cc1cc(OCC(F)(F)F)cc(C)c1C1C(=O)CC(CC(=O)NCc2cccc(F)c2)C1=O (stereo not shown) [Compound B205] | 100 | 100 | 90 | 80 | 90 | 90 | 90 | 90

From patent US10206394B2, “Herbicidal compounds” (Syngenta Participations AG, priority 2014, dated 2019)
